Activity data for one compound are collected here from ChEMBL document CHEMBL4330071 (Eur J Med Chem, 2019).

The test system of this assay is MV4-11. The assay is described as follows: Induction of apoptosis in human MV4-11 cells assessed as necrotic cells at 0.02 uM after 24 hrs by Annexin V-FITC/propidium iodide staining based flow cytometric analysis (reference value: 0%). The format is functional.

For the compound `CN1CCC(Nc2ccc(C(=O)Nc3cc(-c4cc(C#N)cs4)n[nH]3)cc2)CC1`, the Activity was found to be 3.01%.
